19 compounds from patent publication US7723368B2, “Amino-5-[4-(difluoromethoxy)phenyl]-5-phenylimidazolone compounds for the inhibition of beta-secretase” (Wyeth LLC, priority 2007, dated 2010) can be followed below.

The target of one series is human BACE1 (Homo sapiens, UniProt P56817). Kind of series: BACE1 fluorescent kinetic assay (cleavage of peptide substrate WABC-6). The class given is biochemical. The settings on record: 10 nM enzyme, 25 μM substrate WABC-6, pH 4.5, room temperature. As to the method:
Evaluation of BACE1 Binding Affinity of Test Compounds
Fluorescent Kinetic Assays
Dilution and mixing steps: total reaction volume: 100 μL
100 μM substrate dilution in 1×PBS was prepared, and
Fluorescence Readings: Readings at λex 320 nm and λem 420 nm are taken every 40 sec for 30 min at room temperature and the linear slope for substrate cleavage rate (vi) determined.

Chain of human BACE1 (P56817 46-501): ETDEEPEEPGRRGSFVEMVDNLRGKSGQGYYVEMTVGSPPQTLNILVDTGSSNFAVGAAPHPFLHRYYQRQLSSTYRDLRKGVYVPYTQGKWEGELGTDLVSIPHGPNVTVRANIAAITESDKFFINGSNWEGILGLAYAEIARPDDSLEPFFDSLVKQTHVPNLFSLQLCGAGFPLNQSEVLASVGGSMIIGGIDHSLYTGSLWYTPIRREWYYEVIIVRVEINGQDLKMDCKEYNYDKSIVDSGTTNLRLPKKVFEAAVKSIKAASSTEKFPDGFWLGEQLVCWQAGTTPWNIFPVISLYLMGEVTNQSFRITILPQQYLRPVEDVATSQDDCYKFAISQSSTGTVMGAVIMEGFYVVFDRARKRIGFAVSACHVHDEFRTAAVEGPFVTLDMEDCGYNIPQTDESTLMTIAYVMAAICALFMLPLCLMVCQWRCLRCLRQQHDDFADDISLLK

In general, IC50 refers to the concentration needed to halve the response being measured. Low values mean greater potency in that assay, high ones weaker potency in that assay. Usually melting point stands for the temperature, or range, at which the solid turns liquid. `C=CCCC(F)c1cccc(C2(c3ccc(OC(F)F)cc3)N=C(N)N(C)C2=O)c1` (centres unmarked) [Example 12, 2-Amino-5-(4-difluoromethoxy-phenyl)-5-[3-(1-fluoro-pent-4-enyl)-phenyl]-3-methyl-3,5-dihydro-imidazol-4-one] had a melting point of 50 to 55 °C. Also, the IC50 against human BACE1 (Activity Table, Examples 1-108) was below 0.1 µM. Taken in the same sequence, the figures for `C=CCCC(F)c1cc(C2(c3ccc(OC(F)F)cc3)N=C(N)N(C)C2=O)ccc1F` (centres unmarked) [Example 13, 2-Amino-5-(4-difluoromethoxy-phenyl)-5-[4-fluoro-3-(1-fluoro-pent-4-enyl)-phenyl]-3-methyl-3,5-dihydro-imidazol-4-one] were 50 to 55 °C and 0.11 to 1 µM.

With `CN1C(=O)C(c2ccc(OC(F)F)cc2)(c2ccc(F)c(CCCC#N)c2)N=C1N` (centres unmarked) [Example 14, 4-{5-[2-Amino-4-(4-difluoromethoxy-phenyl)-1-methyl-5-oxo-4,5-dihydro-1H-imidazol-4-yl]-2-fluoro-phenyl}-butyronitrile], the melting point is 65 to 70 °C. At human BACE1 (Activity Table, Examples 1-108), this compound had a half-inhibitory concentration (IC50) below 0.1 µM. With `Cc1cc(C2(c3ccc(OC(F)F)cc3)N=C(N)N(C)C2=O)ccc1F` (centres unmarked) [Example 15, 2-Amino-5-(4-difluoromethoxy-phenyl)-5-(4-fluoro-3-methyl-phenyl)-3-methyl-3,5-dihydro-imidazol-4-one], the melting point was found to be 70 °C. Further, the half-inhibitory concentration (IC50) at human BACE1 (Activity Table, Examples 1-108) is 0.11 to 1 µM. The matching figures for `COc1ccc(C2(c3ccc(OC(F)F)cc3)N=C(N)N(C)C2=O)cc1C#N` (centres unmarked) [Example 16, 5-[2-Amino-4-(4-difluoromethoxy-phenyl)-1-methyl-5-oxo-4,5-dihydro-1H-imidazol-4-yl]-2-methoxy-benzonitrile]: 104 to 105 °C and above 1 µM. The matching figures for `CN1C(=O)C(c2ccc(OC(F)F)cc2)(c2ccc(F)c(CF)c2)N=C1N` (centres unmarked) [Example 17, 2-Amino-5-(4-difluoromethoxy-phenyl)-5-(4-fluoro-3-fluoromethyl-phenyl)-3-methyl-3,5-dihydro-imidazol-4-one]: 70 to 73 °C and 0.11 to 1 µM.

`Cc1ccccc1C1(c2ccc(OC(F)F)cc2)N=C(N)N(C)C1=O` (centres unmarked) [Example 18, 2-Amino-5-(4-difluoromethoxy-phenyl)-3-methyl-5-o-tolyl-3,5-dihydro-imidazol-4-one] gave a melting point of 85 to 90 °C. The compound further came in with a 50% inhibitory concentration (IC50) at human BACE1 (Activity Table, Examples 1-108) above 1 µM. The matching figures for `C=CCC(F)c1cccc(C2(c3ccc(OC(F)F)cc3)N=C(N)N(C)C2=O)c1` (centres unmarked) [Example 57, 2-amino-5-[4-(difluoromethoxy)phenyl]-5-[3-(1-fluorobut-3-en-1-yl)phenyl]-3-methyl-3,5-dihydro-4H-imidazol-4-one]: 49 to 51 °C and 0.11 to 1 µM. The matching figures for `CN1C(=O)C(c2ccc(OC(F)F)cc2)(c2cccc(OCCCF)c2)N=C1N` (centres unmarked) [Example 82, 2-Amino-5-[4-(difluoromethoxy)phenyl]-5-[3-(3-fluoropropox-1-yl)phenyl]-3-methyl-3,5-dihydro-4H-imidazol-4-one]: 161 to 162 °C and below 0.1 µM. In the case of `CN1C(=O)C(c2ccc(OC(F)F)cc2)(c2cccc(CCCCC#N)c2)N=C1N` (centres unmarked) [Example 83, 5-(3-{2-Amino-4-[4-(difluoromethoxy)phenyl]-1-methyl-5-oxo-4,5-dihydro-1H-imidazol-4-yl}phenyl)pentanenitrile], the melting point is 65 °C. This compound also had a 50% inhibitory concentration (IC50) on human BACE1 (Activity Table, Examples 1-108) below 0.1 µM. Turning to `C=CCCCCc1cccc(C2(c3ccc(OC(F)F)cc3)N=C(N)N(C)C2=O)c1` (centres unmarked) [Example 121, 2-amino-5-[4-(difluoromethoxy)phenyl]-5-(3-hex-5-en-I-ylphenyl)-3-methyl-3,5dihydro-4H-imidazol-4-one], at human BACE1 (Examples 109-141), the concentration for half-maximal inhibition (IC50) was below 0.1 µM. Still for that read-out and setting: next, `C=CCCCCc1cccc(C2(c3ccc(OC(F)F)cc3)N=C(N)N(C)C2=O)c1` (centres unmarked) [Example 125, 2-amino-5-[4-(difluoromethoxy)phenyl]-5-(3-hex-5-en-I-ylphenyl)-3-methyl-3,5-dihydro-4H-imidazol-4-one]: below 0.1 µM; `CCCCCCc1cccc(C2(c3ccc(OC(F)F)cc3)N=C(N)N(C)C2=O)c1` (centres unmarked) [Example 126, 2-amino-5-[4-(difluoromethoxy)phenyl]-5-(3-hexylphenyl)-3-methyl-3,5-dihydro-4Himidazol-4-one]: 0.11 to 1 µM; `COCCCC/C=C/c1cccc([C@@]2(c3ccc(OC(F)F)cc3)N=C(N)N(C)C2=O)c1` [Example 129, (R,E)-2-amino-4-(4-(difluoromethoxy)phenyl)-4-(3-(6-methoxyhex-1-enyl)phenyl)-1-methyl-1H-imidazol-5(4H)-one]: below 0.1 µM. For `CC(C)Oc1cc(C2(c3ccc(OC(F)F)cc3)N=C(N)N(C)C2=O)ccc1F` (centres unmarked) [Example 136, 2-amino-5-[4-(difluoromethoxy)phenyl]-5-(4-fluoro-3-isopropoxyphenyl)-3-methyl-3,5-dihydro-4H-imidazol-4-one], the IC50 against human BACE1 (Examples 109-141) is 0.11 to 1 µM. On the same count and under the same terms, under `CC(C)C#Cc1cc(C2(c3ccc(OC(F)F)cc3)N=C(N)N(C)C2=O)ccc1F` (centres unmarked) [Example 138, 2-amino-5-[4-(difluoromethoxy)phenyl]-5-[4-fluoro-3-(3-methylbut-1-yn-1-yl)phenyl]-3-methyl-3,5-dihydro-4H-imidazol-4-one] stands below 0.1 µM; under `CN1C(=O)[C@@](c2ccc(OC(F)F)cc2)(c2ccc(F)c(/C=C/CCF)c2)N=C1N` [Example 140, (5R)-2-amino-5-[4-(difluoromethoxy)phenyl]-5-{4-fluoro-3-[(1E)-4-fluorobut-1-en1-yl]phenyl}-3-methyl-3,5-dihydro-4H-imidazol-4-one], above 1 µM; under `CN1C(=O)[C@](c2ccc(OC(F)F)cc2)(c2ccc(F)c(/C=C/CCF)c2)N=C1N` [Example 141, (5S)-2-amino-5-[4-(difluoromethoxy)phenyl]-5-{4-fluoro-3-[(1E)-4-fluorobut-1-en-1-yl]phenyl}-3-methyl-3,5-dihydro-4H-imidazol-4-one], below 0.1 µM. “methyl[3-(3-{2-amino-4-[4-(difluoromethoxy)phenyl]-1-methyl-5-oxo-4,5-dihydro-1H-imidazol-4-yl}phenyl)-1-methoxycyclobutyl]acetate-methyl[3-(3-{2-amino-4-[4-(difluoromethoxy)phenyl]-1-methyl-5-oxo-4,5-dihydro-1H-imidazol-4-yl}phenyl)cyclobutylidene]acetate (3:1) [Example 55]”: the IC50 against human BACE1 (Activity Table, Examples 1-108) is 0.11 to 1 µM.
